14 compounds from article PMC9609273 (Pharmaceuticals, 2022) can be followed below.

Experiment [1] deals with inhA promoter mutant INH-resistant Mtb clinical isolate. It counts as cell-based, Mycobacterium tuberculosis.
For experiment [2], the system named is katG S315T mutant INH-resistant Mtb clinical isolate. It counts as cell-based, Mycobacterium tuberculosis.
For experiment [3], the target named is enoyl acyl carrier protein reductase (InhA) (Mycobacterium tuberculosis, UniProt P9WGR1). It counts as biochemical.

Like-named read-outs stand apart in the source and are kept apart here.

Chain of enoyl acyl carrier protein reductase (InhA) (P9WGR1 whole entry, looked up): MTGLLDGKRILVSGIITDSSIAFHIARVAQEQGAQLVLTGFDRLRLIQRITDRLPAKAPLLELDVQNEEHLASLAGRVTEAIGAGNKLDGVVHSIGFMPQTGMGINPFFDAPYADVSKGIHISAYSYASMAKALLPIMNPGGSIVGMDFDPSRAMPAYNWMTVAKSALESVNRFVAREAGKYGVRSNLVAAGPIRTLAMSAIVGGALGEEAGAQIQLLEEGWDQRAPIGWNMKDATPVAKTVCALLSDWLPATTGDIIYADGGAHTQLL

In the case of “3-((2-Isonicotinoylhydrazono)methyl)phenyl 2,4,6-trimethylbenzenesulfonate [SIH3]”, the “MIC inhA +” value in experiment [1] was 6.25 µM. The “MIC katG +” value in experiment [2] was determined as 50 µM.
Turning to “3-((2-Isonicotinoylhydrazono)methyl)phenyl 2,5-dichlorobenzenesulfonate [SIH8]”, the “MIC inhA +” value in experiment [1] is 3.12 µM. In addition, the “MIC katG +” value in experiment [2] came to 12.5 µM.
As for “3-((2-Isonicotinoylhydrazono)methyl)phenyl 3-nitrobenzenesulfonate [SIH10]”, the “MIC inhA +” value in experiment [1] worked out at 3.12 µM. In addition, the “MIC katG +” value in experiment [2] was found to be 12.5 µM. Moreover, in experiment [3] (50 µM compound), the “% Inhibition of InhA” value was 17%.
With “3-((2-Isonicotinoylhydrazono)methyl)phenyl 4-(tert-butyl)benzenesulfonate [SIH2]”, the “MIC inhA +” value in experiment [1] was found to be 1.56 µM. For the same compound, in experiment [2], the “MIC katG +” value is 25 µM. Further, the “% Inhibition of InhA” value in experiment [3] (50 µM compound) turned out to be 25%.
In the case of “3-((2-Isonicotinoylhydrazono)methyl)phenyl 4-acetamidobenzenesulfonate [SIH11]”, the “MIC inhA +” value in experiment [1] was 3.12 µM. Also, the “MIC katG +” value in experiment [2] amounted to 12.5 µM. In experiment [3] (50 µM compound), the “% Inhibition of InhA” value came out at 10%.
Regarding “3-((2-Isonicotinoylhydrazono)methyl)phenyl 4-bromobenzenesulfonate [SIH5]”, the “MIC katG +” value in experiment [2] turned out to be 25 µM. Also, the “% Inhibition of InhA” value in experiment [3] (50 µM compound) is on record as 33%.
“3-((2-Isonicotinoylhydrazono)methyl)phenyl 4-chlorobenzenesulfonate [SIH6]”: the “MIC katG +” value in experiment [2] was greater than 100 µM. Besides, in experiment [3] (50 µM compound), the “% Inhibition of InhA” value turned out to be 23%.
Take “3-((2-Isonicotinoylhydrazono)methyl)phenyl 4-iodobenzenesulfonate [SIH7]”: the “MIC inhA +” value in experiment [1] was 6.25 µM. Also, in experiment [2], the “MIC katG +” value was greater than 100 µM. Also, in experiment [3] (50 µM compound), the “% Inhibition of InhA” value is 41%.
Consider “3-((2-Isonicotinoylhydrazono)methyl)phenyl 4-methoxybenzenesulfonate [SIH4]”, for which the “MIC inhA +” value in experiment [1] turned out to be 1.56 µM. Moreover, in experiment [2], the “MIC katG +” value turned out to be 6.25 µM. The “% Inhibition of InhA” value in experiment [3] (50 µM compound) came to 5%.
Take “3-((2-Isonicotinoylhydrazono)methyl)phenyl 4-methylbenzenesulfonate [SIH1]”: the “MIC inhA +” value in experiment [1] is 1.56 µM. Also, in experiment [2], the “MIC katG +” value came out at 50 µM. Besides, the “% Inhibition of InhA” value in experiment [3] (50 µM compound) worked out at 12%.
For the compound “3-((2-Isonicotinoylhydrazono)methyl)phenyl 4-nitrobenzenesulfonate [SIH9]”, the “MIC inhA +” value in experiment [1] worked out at 3.12 µM. Besides, the “MIC katG +” value in experiment [2] came to 25 µM. In addition, the “% Inhibition of InhA” value in experiment [3] (50 µM compound) stood at 8%.
As to “3-((2-Isonicotinoylhydrazono)methyl)phenyl [1,1′-biphenyl]-4-sulfonate [SIH12]”, the “MIC inhA +” value in experiment [1] amounted to 3.12 µM. In experiment [2], the “MIC katG +” value was 12.5 µM. Further, the “% Inhibition of InhA” value in experiment [3] (50 µM compound) was 31%.
Regarding “3-((2-Isonicotinoylhydrazono)methyl)phenyl quinoline-8-sulfonate [SIH13]”, the “MIC inhA +” value in experiment [1] came out at 3.12 µM. Also, in experiment [2], the “MIC katG +” value was 12.5 µM. The “% Inhibition of InhA” value in experiment [3] (50 µM) was 22%.
`NNC(=O)c1ccncc1` [Isoniazid, isonicotinic acid hydrazide, reference compound]: in experiment [1], the “MIC inhA +” value turned out to be 1.56 µM. In addition, the “MIC katG +” value in experiment [2] was found to be 6.25 µM.
